Results taken from BigSolDB 2.1.

NC(=O)c1ccccc1
solubility (mole fraction)
Details | 283.15 K | 288.15 K | 293.15 K | 298.15 K | 303.15 K | 308.15 K | 313.15 K | 318.15 K | 323.15 K
in acetone | 0.0508 | 0.0589 | 0.0703 | 0.0817 | 0.0948 | 0.107 | 0.126 | 0.149 | 0.174
in acetonitrile | 0.0162 | 0.0196 | 0.0231 | 0.0278 | 0.0331 | 0.0385 | 0.046 | 0.0564 | 0.0712
in ethanol | 0.0412 | 0.0479 | 0.0555 | 0.0648 | 0.0758 | 0.087 | 0.101 | 0.12 | 0.143
in ethyl acetate | 0.0206 | 0.0234 | 0.0279 | 0.0334 | 0.0392 | 0.0455 | 0.0518 | 0.0613 | 0.0719
in isobutanol | 0.0268 | 0.0289 | 0.0342 | 0.0416 | 0.0489 | 0.0569 | 0.0665 | 0.0786 | 0.0945
in isopropanol | 0.0253 | 0.0314 | 0.0387 | 0.0473 | 0.0558 | 0.0642 | 0.0767 | 0.0893 | 0.111
in methanol | 0.0599 | 0.0699 | 0.0804 | 0.0917 | 0.105 | 0.121 | 0.141 | 0.164 | 0.189
in methyl acetate | 0.0236 | 0.0277 | 0.0334 | 0.0401 | 0.0476 | 0.0567 | 0.0662 | 0.0769 | 0.0927
in n-butanol | 0.0308 | 0.036 | 0.0425 | 0.0509 | 0.0591 | 0.0682 | 0.0787 | 0.0933 | 0.109
in n-butyl acetate | 0.0176 | 0.0192 | 0.0224 | 0.0264 | 0.0304 | 0.0349 | 0.0402 | 0.0451 | 0.0525
in n-propanol | 0.0329 | 0.0398 | 0.0479 | 0.0561 | 0.0653 | 0.0753 | 0.0891 | 0.103 | 0.126
in water | 0.00099 | 0.00128 | 0.0017 | 0.00212 | 0.00261 | 0.00306 | 0.00363 | 0.00438 | 0.00538
